This note sets out measurements from patent US20100227853A1, “INHIBITORS OF CYCLIC AMP PHOSPHODIESTERASES” (Trustees of Boston College, priority 2008, published 2010).

Molecules are shown by their SMILES.

In the experiment the target is T1, PDE4A5 (Rattus norvegicus, UniProt P54748).
T1 construct: targets used in the assays are full-length proteins (as opposed to simply the catalytic domain); expressed in transfected cells; host or cells: Schizosaccharomyces pombe, PDE gene integrated in place of cgs2
T1 sequence (P54748 1-844): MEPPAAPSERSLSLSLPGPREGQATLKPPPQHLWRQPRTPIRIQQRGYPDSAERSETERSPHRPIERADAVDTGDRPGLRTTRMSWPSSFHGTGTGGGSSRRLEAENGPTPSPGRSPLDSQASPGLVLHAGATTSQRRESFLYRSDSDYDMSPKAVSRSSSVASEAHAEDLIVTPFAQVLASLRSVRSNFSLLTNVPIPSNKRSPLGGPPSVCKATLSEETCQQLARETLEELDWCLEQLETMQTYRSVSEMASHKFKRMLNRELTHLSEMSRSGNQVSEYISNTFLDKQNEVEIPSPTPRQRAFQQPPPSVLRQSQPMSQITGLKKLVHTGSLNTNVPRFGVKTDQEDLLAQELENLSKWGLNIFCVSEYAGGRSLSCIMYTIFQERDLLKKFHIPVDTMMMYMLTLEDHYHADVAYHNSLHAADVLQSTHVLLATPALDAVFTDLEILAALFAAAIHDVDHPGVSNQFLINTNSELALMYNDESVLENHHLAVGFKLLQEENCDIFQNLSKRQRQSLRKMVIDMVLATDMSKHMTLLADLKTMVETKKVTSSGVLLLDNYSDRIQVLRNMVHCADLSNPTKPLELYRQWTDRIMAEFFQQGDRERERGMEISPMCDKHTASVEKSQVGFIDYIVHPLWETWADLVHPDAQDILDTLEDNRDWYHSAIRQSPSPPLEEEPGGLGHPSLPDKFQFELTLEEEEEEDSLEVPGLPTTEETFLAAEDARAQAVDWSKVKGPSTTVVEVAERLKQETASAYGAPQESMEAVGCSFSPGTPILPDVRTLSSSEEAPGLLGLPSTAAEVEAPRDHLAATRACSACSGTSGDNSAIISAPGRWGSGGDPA
Put plainly: 5FOA growth assay in fission yeast strain expressing PDE4A5. Type of experiment: cell-based. The settings on record: for Composite Z score, PDE4A5: high throughput 5FOA growth screen. How it is done:
High throughput drug screens were carried out at the Broad Institute's Chemical Biology Program screening facility (Broad Institute, Cambridge, Mass.). Depending upon the strain, cultures were pregrown to exponential phase in EMM complete medium containing from 0.5 to 2.5 mM cAMP to repress fbp1-ura4 transcription. Cells were collected by centrifugation, resuspended in 5FOA medium, and 25 μl were transferred to 384-well microtiter dishes (untreated, with flat clear bottoms) that had been pre-filled with 25 μl 5FOA medium and pre-pinned with 100 nl of compounds (stock solutions were generally 10 mM) from a subset of the Prestwick Bioactive and the Microsource Spectrum compound libraries. Starting cell concentrations ranged from 0.5×10^5 to 4×10^5 cells/ml depending on the screening strain. […] Other positive control dishes contained 5 mM cAMP in the 5FOA medium. Cultures were grown for 48 hours at 30° C., sealed in an airtight container with moist paper towels to prevent evaporation. Optical densities (OD600) of cultures were measured using a microplate reader. Bioinformatic analysis of the results to determine composite Z scores was performed as previously described^30, 31.
Cells were pregrown in EMM medium [MP Biomedicals (Solon, Ohio), 3% glucose, filter-sterilized to avoid carmelization, which would introduce variability into the optical density of the medium] containing from 0 mM to 2.5 mM cAMP (or either 0.5 mM or 1.0 mM cGMP). This was to repress expression of the fbp1-ura4 reporter prior to exposure of cells to 5FOA medium. Cells were grown at 30° C. to exponential phase (approximately 10^7 cells/ml). Cells were collected by centrifugation and resuspended in 5FOA medium, and 25 μl were transferred to 384-well microtiter dishes (untreated, with flat clear bottoms) that had been pre-filled with 25 μl 5FOA medium and pre-pinned with 100 nl of compounds (stock solutions were generally 10 mM). Starting cell concentrations ranged from 0.5×10^5 to 4×10^5 cells/ml depending on the screening strain. […] Other positive control dishes contained 5 mM cAMP in the 5FOA medium for PDEs that lack appropriate control compounds. Cultures were grown for 48 hours at 30° C., sealed in an airtight container with moist paper towels to prevent evaporation. Optical densities (OD600) of cultures were measured using a microplate reader. Bioinformatic analysis of the results to determine composite Z scores was performed as previously described (1, 3).

For the compound `COC(=O)C1=C(C)N(c2ccccc2Cl)C(=O)/C1=C\c1cccs1` [Compound 27], the “2 Assay (2 uM), 4A5” value (2 uM) is 12.63. In addition, the “1 Assay (20 uM) 4A5” value (20 uM) was found to be 65.67.

As for `Cc1nc(N2CCC(C)CC2)c2c(C)c(C(=O)N3CCN(c4ccc(F)cc4)CC3)sc2n1` [Compound 2040N10], the “Composite Z score, PDE4A5” value is 1.3723.

As to `COc1ccccc1CNC(=O)c1sc2ncnc(N3CCN(c4ccccc4F)CC3)c2c1C` [2041 E21], the “Composite Z score, PDE4A5” value was determined as 2.4446.
